Measured values reported in publication PMC6013488, “A widely-applicable high-throughput cellular thermal shift assay (CETSA) using split Nano Luciferase” (Scientific Reports, 2018).
Counter-ions that a name gives are not always drawn. Like-named read-outs stand apart in the source and are kept apart here.

Molecular target: T1, CDK9/cyclin K (Homo sapiens, UniProt P50750)
T1 construct: purchased Invitrogen (ThermoFisher) PV4335
Test: TR-FRET Lanthascreen Eu Kinase Binding assay
Details: for Curve Class: classifies curves by quality of fit, efficacy and number of asymptotes; for Efficacy: difference between highest and lowest activity across concentration range; for Efficacy / Max Resp: in %
Excerpt: The TR-FRET Lanthascreen Eu Kinase Binding assay for CDK9/cyclin K was purchased from ThermoFisher and performed as per manufacturer instructions.

[1] = concentration at which half maximal activity is observed, 7-point qHTS, read-out: AC50

T1 sequence (P50750 whole entry): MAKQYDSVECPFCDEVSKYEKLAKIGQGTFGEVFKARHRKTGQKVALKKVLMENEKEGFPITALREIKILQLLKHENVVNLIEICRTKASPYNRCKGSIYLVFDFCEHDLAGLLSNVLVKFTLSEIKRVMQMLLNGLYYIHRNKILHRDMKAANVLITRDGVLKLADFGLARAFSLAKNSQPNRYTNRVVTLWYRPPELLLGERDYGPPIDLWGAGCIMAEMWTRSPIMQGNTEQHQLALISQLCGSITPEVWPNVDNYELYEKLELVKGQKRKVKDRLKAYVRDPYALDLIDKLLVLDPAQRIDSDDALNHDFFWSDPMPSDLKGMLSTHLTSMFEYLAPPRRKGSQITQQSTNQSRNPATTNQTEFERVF
T1 sequence (O75909 whole entry partner): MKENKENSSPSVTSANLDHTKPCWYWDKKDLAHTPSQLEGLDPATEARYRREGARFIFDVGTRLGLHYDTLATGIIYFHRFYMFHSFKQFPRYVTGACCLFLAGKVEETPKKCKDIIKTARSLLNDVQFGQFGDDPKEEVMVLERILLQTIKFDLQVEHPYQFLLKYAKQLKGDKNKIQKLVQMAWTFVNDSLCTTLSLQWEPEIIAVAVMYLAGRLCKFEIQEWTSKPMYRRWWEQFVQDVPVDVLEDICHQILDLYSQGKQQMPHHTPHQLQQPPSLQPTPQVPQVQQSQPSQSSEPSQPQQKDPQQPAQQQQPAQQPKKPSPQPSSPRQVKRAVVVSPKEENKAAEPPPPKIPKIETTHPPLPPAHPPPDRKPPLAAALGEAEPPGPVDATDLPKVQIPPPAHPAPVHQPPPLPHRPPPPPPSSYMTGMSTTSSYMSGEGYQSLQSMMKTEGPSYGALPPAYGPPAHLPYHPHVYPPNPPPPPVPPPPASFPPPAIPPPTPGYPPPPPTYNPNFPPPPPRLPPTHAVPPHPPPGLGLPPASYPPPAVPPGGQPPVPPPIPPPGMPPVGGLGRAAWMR

SMILES | Curve Class | Efficacy | Max Resp | AC50 [1] [nM] | Log AC50 (M) (logarithm of AC50) | AC50 (AC50, concentration at which half maximal activity is observed, 7-point qHTS) [nM] | AC50 (logarithm of AC50, read-out: Log AC50 (converted)) [nM]
Nc1n[nH]c(N)c1N=Nc1ccc(O)cc1 (stereo in doubt) [CAY10574] | -1.1 | -84.6 | -95.5 | – | – | – | –
CCCCNc1ncc(C(=O)NCc2ccc(-n3ccnc3)cc2)c(NC2CCC(O)CC2)n1 (stereo in doubt) [UNC2881] | -1.1 | -93.2 | -99.2 | – | – | – | –
O=C1Nc2ccc(F)cc2/C1=C1\Nc2ccccc2\C1=N\O [5 -Fluoroindirubinoxime] | -1.1 | -80.2 | -86.1 | – | – | – | –
Nc1ncnc2c1c(I)cn2[C@@H]1O[C@H](CO)[C@H](O)C1O (stereo partly shown) [5-Iodotubercidin] | -1.1 | -92.5 | -99.1 | – | – | – | –
COc1ccc2c(NC(=O)Nc3cccc(C(F)(F)F)n3)ccnc2c1 [A 1070722] | -1.4 | -58.3 | -64.1 | – | – | – | –
CC(C)n1nc(-c2ccc(NC(=O)Nc3cccc(C(F)(F)F)c3)cc2)c2c(N)ncnc21 [AD57 (hydrochloride)] | -1.1 | -86.8 | -79.5 | – | – | – | –
N#C/C(=C1\Nc2ccccc2S1)c1ccnc(NCCc2cccnc2)n1 [AS601245] | -1.2 | -79.8 | -85.8 | – | – | – | –
O=C(NC1CCNCC1)c1[nH]ncc1NC(=O)c1c(Cl)cccc1Cl [AT7519] | 5 | -14.9 | -96.9 | – | – | – | –
O=C(Nc1c[nH]nc1-c1nc2ccc(CN3CCOCC3)cc2[nH]1)NC1CC1 [AT9283] | -1.1 | -93.9 | -97.0 | – | – | – | –
CC(C)Oc1cc(Nc2nc(N[C@@H](C)c3ccc(F)cn3)ncc2Cl)n[nH]1 [AZ 23] | -1.2 | -76.1 | -97.4 | – | – | – | –
Cc1ncc(-c2ccnc(Nc3ccc(S(C)(=O)=O)cc3)n2)n1C(C)C [AZD5438] | -1.2 | -75.7 | -98.3 | – | – | – | –
CN[C@H]1CCN(C(=O)c2ccc(Nc3ncc(F)c(-c4cnc(C)n4C(C)C)n3)cc2)C1 [AZD-5597] | -1.3 | -51.7 | -96.5 | – | – | – | –
O=C1Cc2c([nH]c3ccc([N+](=O)[O-])cc23)-c2ccccc2N1 [Alsterpaullone] | -1.1 | -82.6 | -92.4 | – | – | – | –
CC(=O)N1CCN(C(=O)Cc2ccc(Nc3ncc(F)c(Nc4ccc(C(=O)Nc5ccccc5Cl)cc4)n3)cc2)CC1 [Aurora A inhibitor II] | -1.1 | -82.6 | -83.7 | 947 | -6.0 | – | –
COc1ccc(-c2cc3nccn3c(Nc3ncccc3C(N)=O)n2)cc1OC [BAY 61-3606 (dihydrochloride)] | -1.1 | -91.8 | -92.1 | – | – | – | –
CC(C)c1cnn2c(NCc3ccccc3)cc(N[C@@H](CO)[C@H](O)CO)nc12 [BS194] | -1.1 | -108.2 | -95.8 | – | – | – | –
O=C(NCCCNc1nc(Nc2cccc(NC(=O)N3CCCC3)c2)ncc1I)c1cccs1 [BX-795 hydrochloride] | -1.1 | -99.6 | 5.8 | – | – | – | –
Cc1cc(CN2CCN(c3c(Br)cnc4[nH]c(-c5ccc(N6CCN(C)CC6)cc5)nc34)CC2)no1 [CCT137690] | -1.2 | -77.1 | -79.3 | – | – | – | –
OCCCNc1cc(-c2ccnc(Nc3cccc(Cl)c3)n2)ccn1 [CGP60474] | -1.2 | -56.9 | -98.0 | – | – | – | –
Nc1nc(NCCNc2ncc(-n3ccnc3)c(-c3ccc(Cl)cc3Cl)n2)ccc1[N+](=O)[O-] [CHIR98014] | -1.1 | -87.0 | -80.6 | – | – | 134 | –
COCCOc1ccc2c(c1)ncn2-c1ccc2cccc(N3CCC(N)CC3)c2n1 [CP-673451] | -1.1 | -83.3 | -91.2 | 150 | – | – | –

SMILES | Curve Class | Efficacy | Max Resp | AC50 [1] [nM] | Log AC50 (M) (logarithm of AC50) | AC50 (AC50, concentration at which half maximal activity is observed, 7-point qHTS) [nM] | AC50 (logarithm of AC50, read-out: Log AC50 (converted)) [nM]
CC1(COc2ccc3c(c2)ncn3-c2ccc3cccc(N4CCC(N)CC4)c3n2)COC1 [CP-868596 (Crenolanib)] | -1.1 | -91.6 | -90.2 | – | – | – | –
COc1ccc(CNc2nc(N(CCO)CCO)nc3c2ncn3C(C)C)cc1 [CVT-313] | -1.1 | -101.1 | -99.9 | 532 | – | – | –
O=C(O)c1ccc2c(c1)nc(Nc1cccc(Cl)c1)c1ccncc12 [CX-4945 (sodium salt)] | -1.1 | -98.0 | -93.5 | – | – | – | –
Cc1nc(N)sc1-c1ccnc(Nc2ccc(N3CCOCC3)cc2)n1 [CYC-116] | -1.1 | -92.0 | -90.5 | – | – | – | –
N#CCNC(=O)c1ccc(-c2ccnc(Nc3ccc(N4CCOCC4)cc3)n2)cc1 [CYT-387] | -1.1 | -85.8 | -96.7 | – | – | – | –
NS(=O)(=O)c1ccc(NN=C2C(=O)Nc3ccc(Br)cc32)cc1 [Cdk2 Inhibitor II] | -1.2 | -67.2 | -64.7 | – | – | – | –
CC(C)c1nn(-c2c(Cl)cccc2Cl)c2nc(Cc3ccc(OCCO)cc3)[nH]c(=O)c12 [Cdk/Crk Inhibitor] | -1.2 | -57.1 | -99.2 | – | – | – | –
Cc1n[nH]c2ccc(-c3cncc(OC[C@@H](N)Cc4c[nH]c5ccccc45)c3)cc12 [Compound A-443654, A-443654] | -1.1 | -88.0 | -96.6 | – | – | – | –
Cc1n[nH]c2ccc(-c3cncc(OC[C@@H](N)Cc4ccccc4)c3)cc12 [Compound A-674563, A-674563] | -1.1 | -89.8 | -98.7 | – | – | – | –
O=C1Nc2ccc3ncsc3c2/C1=C/c1c[nH]cn1 [Compound C16, C16] | -1.2 | -77.3 | -68.5 | – | – | – | –
CN1CCC(c2c(O)cc(O)c3c(=O)cc(-c4ccccc4Cl)oc23)C1CO (stereo not shown) [Compound P276-00, P276-00] | -1.2 | -60.7 | -99.0 | – | – | – | –
COc1ccc(F)c(F)c1C(=O)c1cnc(NC2CCN([S+](C)(=O)[O-])CC2)nc1N [Compound R547, R547] | 5 | -13.4 | -94.3 | – | – | – | –
NC(=O)c1ccccc1Nc1ccnc(Nc2cccc(O)c2)n1 [DB07268] | -1.1 | -100.7 | -97.2 | – | – | – | –
CN(C)c1nc2c(Br)c(Br)c(Br)c(Br)c2[nH]1 [DMAT] | -1.1 | -84.2 | -94.6 | – | – | – | –
CNC(=O)c1ccc(Nc2ncc(C(F)(F)F)c(NCc3nccnc3N(C)[S+](C)(=O)[O-])n2)cc1 [Defactinib (VS-6063, PF-04554878)] | -1.1 | -79.8 | -50.3 | – | – | – | –
O=C(Nc1ccnc(NC(=O)C2CC2)c1)c1c(Cl)cccc1Cl [GDC-046] | -1.1 | -83.7 | -94.2 | 33.6 | – | – | 31.6
CN(C)CCCn1cc(C2=C(c3c[nH]c4ccccc34)C(=O)NC2=O)c2ccccc21 [GF109203X] | -1.2 | -69.1 | -74.0 | – | – | – | –
O=C1NC(=O)/C(=C/c2ccc3nccc(-c4ccncc4)c3c2)S1 [GSK1059615] | -1.1 | -89.8 | -91.2 | – | – | – | –
O=C(O)c1ccc(-c2c[nH]c3ncc(-c4ccccc4)cc23)cc1C1CCCC1 [GSK-650394] | -1.2 | -77.0 | -89.0 | – | – | – | –
O=C1NC(=O)/C(=C/c2ccc3nccc(-c4ccncc4)c3c2)S1 [GSK-1059615] | -1.2 | -79.9 | -87.0 | – | – | – | –
